According to article PMC3892053, “Pharmacokinetic/pharmacodynamic modeling for the determination of a cimicoxib dosing regimen in the dog” (BMC Veterinary Research, 2013):
≈ marks a conversion by molar mass, not a printed value. Like-named read-outs stand apart in the source and are kept apart here.

Experiments:
[1] = design: method as in Vetoquinol, unpublished results; details: non-linear disposition, ref Vetoquinol, unpublished results, cited from earlier work
[2] = tested on: kaolin-induced paw inflammation; assay: PK/PD modelling (indirect response models) of kaolin paw inflammation endpoints; format: in vivo, dog; details: for EC50 at 2 mg/kg / IC50 at 2 mg/kg: po; for EC50 at 2 mg/kg: read-out: EC50, body temperature
Experimental: Pharmacokinetic and PK/PD modeling were performed by least-squares regression analysis using WinNonlin Professional software (WinNonlin® software, version 4.0.1, Pharsight Corporation, Mountain View, Ca, USA). For PK analysis, individual plasma cimicoxib concentrations were fitted to polyexponential equations. The data points were weighted by the inverse of the squared-fitted value. The number of exponential (2 or 3) terms needed to obtain the best fit for each data set was determined by the Akaike’s information criteria and by inspecting the plot of residuals. A biexponential equation corresponding to a mono-compartmental model for extravascular administration with a lag-time was selected (Equation 1).
As the effect cimicoxib on the local temperature and paw oedema after inflammation were present but lower than the other effects, these endpoints were not used for the PK/PD analysis. […] Finally, four endpoints were considered as suitable for the PK/PD analysis aiming at modelling the relationship between cimicoxib plasma concentrations and its antipyretic and anti-inflammatory effects, namely: body temperature (antipyretic effect), creeping speed, vertical force of the paw and clinical lameness score (anti-inflammatory effects).
The selected PK/PD models were of the class of the indirect response models as proposed by Dayneka. In these models, the measured response (R) is assumed to result from factors controlling either the development (Kin) or the dissipation (Kout) of the response according to Equation 3.
where dR/dt is the rate of change of the response over time, Kin represents the zero-order rate constant for production of the response and Kout the first-order rate constant for loss of the response. The time development of measured response was modeled by a sigmoid-Emax (maximum stimulatory effect) or sigmoid-Imax (maximum inhibition effect) function (Hill models) that can be exerted either on Kin or Kout. […] The effect of cimicoxib on the central temperature was based on a model assuming that during the inflammation phase, thermogenesis is increased (increase in Kin) while thermolysis is reduced (reduction in Kout) until a new balance for central temperature is reached. The antipyretic effect of an NSAID consisted of an increase in thermolysis (increase of Kout) enabling the central temperature to return to its control values, according to Equation 4:
(4) dR/dT=Kin-Kout×1+Emax×C^n/EC50^n+C^n×R
For the creeping test consisting of crossing the tunnel more or less rapidly, an empirical model postulating that the dog’s speed (m.s^-1) is the result of a balance between its motivation to move forward (Kin) and a braking effect (Kout) associated with the severity of inflammation with a lower Kout in control conditions than during inflammation. During inflammation, pain increases the braking effect (i.e. increase Kout) and decreases the speed to cross the tunnel. The anti-inflammatory effect of cimicoxib consisted in reducing the pain (by decreasing Kout), which in turn increased the speed to cross the tunnel as described by Equation 5:
(5) dR/dT=Kin-Kout×1-Imax×C^n/IC50^n+C^n×R
For the vertical force measured with the force plate apparatus normalized by the weight of the dog (without units), Kin represents the ground reaction forces in control resting conditions and Kout represents the factors prompting the withdrawal of limb from the ground in the case of inflammation due to pain i.e. that Kout is increased in the case of inflammation. Thus, the anti-inflammatory effect of cimicoxib consisted in a reduction of pain (decrease of Kout) and the same model as for the creeping speed under the tunnel was used (see Equation 5).
During inflammation, Kin is increased and the effect of cimicoxib was modelled using a concentration-dependent inhibition of Kin, according to Equation 6:
(6) dR/dT=Kin×1-C^n/IC50^n+C^n-Kout×R

[3] = tested on: peri-operative pain; pain and inflammation associated with osteoarthritis; details: inferiority limit 20%, cited from earlier work
[4] = tested on: COX-2; design: method as in PMID 12877584; details: human whole blood assay, cited from earlier work
[5] = plasma concentration, oral 2 mg/kg, PM dogs, mean and range, 2 mg/kg

## COc1ccc(-c2c(Cl)ncn2-c2ccc(S(N)(=O)=O)cc2)cc1F [cimicoxib]
[1]; oral dose of 1 mg/kg
  dose of the simulations to which observed plasma concentrations correspond: 1.46 mg/kg
[1]; oral dose of 4 mg/kg
  dose of the simulations to which observed plasma concentrations correspond: 3.18 mg/kg
[2]; Canis lupus familiaris, abstract, value matches EM dogs, read-out: plasma concentration corresponding to half the maximum of the indirect effect, body temperature
  EC50: 0.193 µg/mL (≈ 0.505 µM)
[2]; Canis lupus familiaris, abstract, value matches EM dogs, read-out: plasma concentration corresponding to half the maximum of the indirect effect, creeping speed
  IC50: 0.239 µg/mL (≈ 0.626 µM)
[2]; Canis lupus familiaris, abstract, value matches EM dogs, read-out: plasma concentration corresponding to half the maximum of the indirect effect, ground reaction vertical force
  IC50: 0.161 µg/mL (≈ 0.422 µM)
[2]; Canis lupus familiaris, abstract, value matches EM dogs, read-out: plasma concentration corresponding to half the maximum of the indirect effect, lameness score
  IC50: 0.284 µg/mL (≈ 0.744 µM)
[2]; Canis lupus familiaris, plasma concentration, oral 2 mg/kg, EM dogs, mean and range
  EC50 at 2 mg/kg: 0.193 µg/mL (≈ 0.506 µM)
[2]; Canis lupus familiaris, plasma concentration, oral 2 mg/kg, EM dogs, mean and range, read-out: IC50, creeping speed
  IC50 at 2 mg/kg: 0.239 µg/mL (≈ 0.627 µM)
[2]; Canis lupus familiaris, plasma concentration, oral 2 mg/kg, EM dogs, mean and range, read-out: IC50, lameness score
  IC50 at 2 mg/kg: 0.284 µg/mL (≈ 0.745 µM)
[2]; Canis lupus familiaris, plasma concentration, oral 2 mg/kg, EM dogs, mean and range, read-out: IC50, vertical force
  IC50 at 2 mg/kg: 0.161 µg/mL (≈ 0.421 µM)
[2]; Canis lupus familiaris, plasma concentration, oral 2 mg/kg, PM dogs, mean and range
  EC50 at 2 mg/kg: 0.473 µg/mL (≈ 1.24 µM)
[2]; Canis lupus familiaris, plasma concentration, oral 2 mg/kg, PM dogs, mean and range, read-out: IC50, creeping speed
  IC50 at 2 mg/kg: 0.345 µg/mL (≈ 0.902 µM)
[2]; Canis lupus familiaris, plasma concentration, oral 2 mg/kg, PM dogs, mean and range, read-out: IC50, lameness score
  IC50 at 2 mg/kg: 0.786 µg/mL (≈ 2.06 µM)
[2]; Canis lupus familiaris, plasma concentration, oral 2 mg/kg, PM dogs, mean and range, read-out: IC50, vertical force
  IC50 at 2 mg/kg: 0.325 µg/mL (≈ 0.851 µM)
[2]; EM dogs, mean and range
  Emax, body temperature: 0.04 [0.03, 0.06] no unit
  Imax, creeping speed: 0.71 [0.38, 1.00] no unit
  Imax, vertical force: 0.98 [0.93, 1.00] no unit
  Kin, body temperature: 41.30 [20.76, 84.13] °C.h^-1
  Kin, creeping speed: 0.90 [0.15, 2.71] m.s^-1.h^-1
  Kin, lameness score: 5.34 [1.17, 16.87] score.h^-1
  Kin, vertical force: 0.09 [0.06, 0.10] normalised force.h^-1
  Kout, body temperature: 1.04 [0.53, 2.10] h^-1
  Kout, creeping speed: 0.95 [0.24, 2.02] h^-1
  Kout, lameness score: 1.08 [0.22, 3.54] h^-1
  Kout, vertical force: 7.40 [3.21, 10.00] h^-1
[2]; PM dogs, mean and range
  Emax, body temperature: 0.04 [0.03, 0.04] no unit
  Imax, creeping speed: 0.70 [0.44, 0.87] no unit
  Imax, vertical force: 0.97 [0.95, 0.99] no unit
  Kin, body temperature: 45.84 [42.76, 49.19] °C.h^-1
  Kin, creeping speed: 0.76 [0.36, 0.97] m.s^-1.h^-1
  Kin, lameness score: 2.57 [0.70, 4.96] score.h^-1
  Kin, vertical force: 0.09 [0.07, 0.10] normalised force.h^-1
  Kout, body temperature: 1.17 [1.09, 1.25] h^-1
  Kout, creeping speed: 1.07 [0.80, 1.47] h^-1
  Kout, lameness score: 0.509 [0.14, 0.99] h^-1
  Kout, vertical force: 8.47 [5.09, 9.99] h^-1
[2]; [5]
  IC50, lameness score: 785.8 [579.4, 916.1] ng/mL
  IC50, vertical force: 325.1 [235.3, 397.6] ng/mL
[3]; pain and inflammation associated with osteoarthritis
  comparison against firocoxib, primary efficacy endpoint: non-inferiority
[3]; peri-operative pain, orthopaedic or soft tissue surgery, carprofen 4 mg/kg per day
  comparison to carprofen on pain during the first 24 hours (composite pain clinical score): non-inferiority
[4]
  IC50 COX-2 inhibition: 0.025 µg/mL (≈ 0.0655 µM)
[4]; read-out: IC50 COX-2 inhibition
  IC50: 0.066 µM
